Measured values taken from patent publication US20230174584A1, “Antibiotic Compounds” (priority 2019, published 2023).
Converted amounts (≈) assume the structure as drawn. “And” between values parts separate entries of the source, which are not always exact repeats. Equal values may be shown once. Read-outs that look alike come from different tables or passages of the source.

Legend:
[1] = system: VRE E155; experiment: Resistance development serial passage assay; assay type: cell-based, Enterococcus faecium; conditions: VanA-type VRE strain serially passaged over 30 days in sub-lethal antibiotic concentrations
Protocol: FIG. 3 illustrates the results obtained when selected compounds were assessed using a resistance development serial passage assay. A) Daily fold-increase of MIC compared to initial MIC against MRSA USA 300 grown in sub-lethal concentrations of daptomycin, compound 5 or compound 16 over 30 days. B). Daily fold-increase of MIC compared to initial MIC against VRE E155 grown in sub-lethal concentrations of daptomycin, compound 5 or compound 16 over 30 days.
From glycerol stocks, bacterial strains were cultured on blood agar plates and incubated overnight at 37° C. A single colony was grown to exponential phase (OD600=0.5) in TSB+0.002% p80 and diluted 1:100 in fresh media. In polypropylene 96-well microtiter plates, antibiotics were added in biological triplicates and serial diluted 2-fold by transfer and mixing from one well to the next to achieve a final volume of 50 μL per well. An equal volume of bacterial suspension was added to the wells and plates were incubated overnight at 37° C. […] This procedure was repeated for 30 days and the MIC was recorded daily. Cultures containing daptomycin were supplemented with 50 mg L^−1 CaCl2 and 10 mg L^−1 MgSO4. The experiment was performed in biological replicates and for each replicate the MIC was determined from the median of a minimum of triplicates.

[2] = Tolerability in naïve mice; assay type: in vivo; conditions: 100 mg/kg (SC), two mice
Protocol: (§1) Mouse studies were performed using pathogen-free CD1 mice (ICR), a well characterized outbred murine strain (supplied by Charles River, Margate UK). All mice were male and weighed 11-15 gram upon arrival. and were allowed to acclimatize for at least 7 days prior to study initiation. Mice were individually housed in sterilized ventilated cages supplied with HEPA filtered sterile air and aspen chip bedding (changed a minimum of once a week). Food and water was available ad libitum. The room temperature was 22° C. 1° C., with a 60% relative humidity and a maximum background noise of 56 dB. Mice were exposed to a 12 h light/dark cycle.
Tolerability of compound 5 was assessed at 100 mg kg^−1 subcutaneous injection (in 10% DMSO in water for injection) in naïve mice (n=2) that were not immunosuppressed or infected.

[3] = PK in naïve mice; assay type: in vivo; conditions: mouse, 3 mg kg^−1 subcutaneous; for Cmax: read-out: C0/Cmax
Protocol: as §1
Test article 5 was administered at 3 mg kg^−1 subcutaneously in naïve mice (n=3) that were not immunosuppressed or infected. Whole blood was collected from the tail vein at 5 min, 15 min, 30 min, 1 h, 2 h, 4 h and 8 h. The last sample was taken as a terminal cardiac puncture.

[4] = system: E. faecium E155; conditions: Enterococcus faecium E155, strain description; cited from earlier work

## CCCCCCCNC(N)=Nc1ccc(CN[C@@]2(C)C[C@H](O[C@H]3[C@H](Oc4c5cc6cc4Oc4ccc(cc4Cl)[C@@H](O)[C@@H](NC(=O)[C@@H](CC(C)C)NC)C(=O)N[C@@H](CC(N)=O)C(=O)N[C@H]6C(=O)N[C@H]4C(=O)N[C@H](C(=O)N[C@H](C(=O)O)c6cc(O)cc(O)c6-c6cc4ccc6O)[C@H](O)c4ccc(c(Cl)c4)O5)O[C@H](CO)[C@@H](O)[C@@H]3O)O[C@@H](C)[C@H]2O)cc1 [Compound 5]
[1]
  resistance induction, fold-increase of MIC compared to initial MIC: low levels of resistance induction
[2]
  adverse effects and gross morphology: No adverse effects and normal gross morphology
  tolerability: well tolerated
[3]; Mean/Median (n=3)
  AUC0-t: 3.134 µM·h
  AUC % Extrapolation to infinity: 1.9%
  C0/Cmax: 1813 ng/mL
  CL/CL_F: 9.30 mL/min/kg
  Clast: 54.6 ng/mL
  t1/2: 1.22 h
  tlast: 8.00 h
  tmax: 1.00 h
  Cmax: 1070 nM
[3]; individual samples 1-3
  AUC0-t: 3.238 µM·h and 3.368 µM·h and 2.797 µM·h
  AUC % Extrapolation to infinity: 3.1% and 0.9% and 1.6%
  AUCinf: 5664 ng hr mL^−1 and 5759 ng hr mL^−1 and 4814 ng hr mL^−1 and 3342 nM hr and 3398 nM hr and 2841 nM hr
  C0/Cmax: 1989 ng/mL and 1903 ng/mL and 1546 ng/mL
  CL/CL_F: 9 mL min^−1 kg^−1 (2×) and 10 mL min^−1 kg^−1
  Clast: 85.3 ng/mL and 34.4 ng/mL and 44.2 ng/mL
  t1/2: 1.43 h and 1.05 h and 1.17 h
  tlast: 8.00 h
  tmax: 1.00 h (2×) and 2.00 h
  Cmax: 1170 nM and 1120 nM and 912 nM

## CN[C@H](CC(C)C)C(=O)N[C@H]1C(=O)N[C@@H](CC(N)=O)C(=O)N[C@H]2C(=O)N[C@H]3C(=O)N[C@H](C(=O)N[C@H](C(=O)O)c4cc(O)cc(O)c4-c4cc3ccc4O)[C@H](O)c3ccc(c(Cl)c3)Oc3cc2cc(c3O[C@@H]2O[C@H](CO)[C@@H](O)[C@H](O)[C@H]2O[C@H]2C[C@](C)(N)[C@H](O)[C@H](C)O2)Oc2ccc(cc2Cl)[C@H]1O [Vancomycin, reference compound]
[4]
  MIC vancomycin (strain description): 1020 µg/mL (≈ 707 µM)
